Laboratory results taken from US9187413B2, “Peripherally restricted FAAH inhibitors” (The Regents of the University of California, priority 2010, dated 2015).

Key:
[1] = system: sciatic nerve ligation; test: Sciatic nerve ligation pain behavior; type: in vivo; conditions: mice
Source text: Surgery. We performed sciatic nerve ligations in male Swiss mice, as previously described for rats^24 with minor modifications^39.
(§1) Behavioral tests. We measured nocifensive responses elicited by i.p. injection of acetic acid in male Swiss and C57B1/6 (wild-type or FAAH-deficient) mice^40, intraplantar injection of carrageenan in male Swiss mice^20, intraplantar injection of formalin in male Sprague-Dawley rats^41, and sciatic nerve ligation in male Swiss mice^39.
Surgeries All surgeries were conducted under aseptical conditions. Implantation of cannulae for intracerebroventricular (i.c.v.) drug administration. SD rats were anesthesized using a mixture of ketamine (70 mg-kg^−1, i.p.) and xylazine (9.33 mg-kg^−1, i.p.). They were placed in a stereotaxic frame and stabilized by ear bars (David Kopf Instruments, Tujunga, Calif., USA) with the incisor bar set 2.4 mm below the horizontal plane. A 22-gauge stainless-steel guide cannula was implanted into the right lateral cerebral ventricle 7 days prior to experiments. Coordinates for implantation (−0.9 mm antero/posterior and −1.5 mm medio/lateral relative to bregma, and 3.8 mm below the surface of the skull) were determined using the Paxinos and Watson rat brain atlas^45. Guide cannulae were anchored to the skull with 3 stainless-steel screws and dental cement, and were kept patent until injection by insertion of a dummy stylet. […]
Behavioral tests Acetic acid-induced writhing was measured in Swiss mice or C57B1/6 mice (wild-type and FAAH-deficient), as described^40 with minor modifications. […] Abdominal stretches (extension of body and hind limbs) were counted for 20 min, starting 5 min after acetic acid injection. […] Behavior was scored by an observer blinded to the treatment conditions. Formalin-induced nociception was assessed in Sprague-Dawley rats, as described^41. […]

[2] = system: carrageenan-induced inflammation; test: Carrageenan-induced hyperalgesia, allodynia and paw edema; type: in vivo, mice; conditions: mice, 1 mg-kg^-1, i.p.
Procedure: as §1
Behavioral tests Acetic acid-induced writhing was measured in Swiss mice or C57B1/6 mice (wild-type and FAAH-deficient), as described^40 with minor modifications. Briefly, the mice were acclimated to the experimental room for 2 h. Each animal was injected with acetic acid (150 μL, 0.6% in saline) and placed into a glass cylinder. Abdominal stretches (extension of body and hind limbs) were counted for 20 min, starting 5 min after acetic acid injection. […] Behavior was scored by an observer blinded to the treatment conditions. Formalin-induced nociception was assessed in Sprague-Dawley rats, as described^41. The rats were singly housed and kept in a shared holding room under a 12:12 h light:dark cycle. They were given free access to food and water, and allowed to acclimate to the facility for a week before testing. […] They were acclimated to the observation container (clear plexiglas box, 29×29×25 cm) for 15 min before receiving an injection of formalin (50 μL, 5% in saline) into the dorsal surface of the right hind paw. Immediately after formalin injection, the rats were returned to the observation container and nocifensive behavior was recorded for 60 min with a video camera. Recordings were analyzed by observers blinded to treatment conditions. Nocifensive behavior was measured continuously for 60 min^41. […] Each 5-min bin was analyzed for time spent (1) lifting and (2) licking or biting the injected paw. Nocifensive behavior was analyzed using the composite pain score weighted scores technique (CPS-WST1,2) calculated for the entire time of observation (0-60 min) and, separately, for the first (0-10 min) and second phase (10-60 min) of the behavioral response^46. The area under the curve (AUC) corresponding to CPS-WST1,2 was calculated using the trapezoidal rule. Paw edema was induced in mice by injection into the right hind paws of 50 μL of sterile saline containing 1% λ-carrageenan. Paw volumes were measured using a plethysmometer (Ugo Basile, Milan, Italy). […] Rimonabant and AM630 (1 mg kg^−1, i.p.) were injected 30 min before carrageenan. Mechanical hyperalgesia was assessed by measuring the latency(s) to withdraw the paw from a constant mechanical pressure exerted onto its dorsal surface. A 15-g calibrated glass cylindrical rod (diameter=10 mm) chamfered to a conical point (diameter=3 mm) was used to exert the mechanical force. The weight was suspended vertically between two rings attached to a stand and was free to move vertically. A cutoff time of 3 min was used. Thermal hyperalgesia was assessed as described^47, measuring the latency to withdraw the hind paw from a focused beam of radiant heat (thermal intensity: infrared 3.0) applied to the plantar surface, using a commercial apparatus (Ugo Basile, Varese, Italy). The cutoff time was set at 30 s. Mechanical allodynia was assessed by applying a graded force to the plantar hind paw surface with a Von Frey filament, using a Dynamic Plantar Anesthesiometer (Ugo Basile). The cutoff force was set at 50 g.

[3] = single dose 1 mg-kg^-1, i.p., 2 h before testing, one week after surgery, operated paws

Question: With `NC(=O)c1cccc(-c2cc(OC(=O)NC3CCCCC3)ccc2O)c1` [Compound 1b, cyclohexylcarbamic acid 3′-carbamoyl-6-hydroxybiphenyl-3-yl ester] as the molecule, how does the “antinociceptive effect of repeated injections after sciatic nerve ligation” value ([1]; 1 mg-kg^-1, i.p., once daily for 4 days, starting 3 days after ligation) read?
Answer: undistinguishable from that caused by single drug dosing

Question: And the “mechanical hyperalgesia and mechanical allodynia after sciatic nerve ligation” value [1, 3]?
Answer: suppressed mechanical hyperalgesia and mechanical allodynia

Question: And the “thermal hyperalgesia after sciatic nerve ligation” value [1, 3]?
Answer: attenuated thermal hyperalgesia

Question: What about the “carrageenan-induced paw edema, 4 h” value ([2]; 4 h after carrageenan) of the same molecule?
Answer: did not affect paw edema

Question: What about the “carrageenan-induced mechanical and thermal hyperalgesia” value ([2]; 4 h and 24 h following carrageenan) of the same molecule?
Answer: significant decrease

Question: What about the carrageenan-induced mechanical allodynia ([2]; 24 h after carrageenan) of the same molecule?
Answer: suppressed mechanical allodynia

Question: And the “carrageenan-induced paw edema, 24 h” value ([2]; 24 h after carrageenan)?
Answer: reversed it
